How the values were obtained:
Assay type in all cases: functional
Sagittaria pygmaea [1] = experiment: Herbicidal activity against Sagittaria pygmaea assessed as killing at 10 g/ha by pot test
Lindernia procumbens [2] = experiment: Herbicidal activity against Lindernia procumbens assessed as killing at 1 g/ha by pot test
Rotala indica [3] = experiment: Herbicidal activity against Rotala indica assessed as killing at 1 g/ha by pot test
Cyperus difformis [4] = experiment: Herbicidal activity against Cyperus difformis assessed as killing at 10 g/ha by pot test
Cyperus difformis [5] = experiment: Herbicidal activity against Cyperus difformis assessed as killing at 1 g/ha by pot test
[6] = system: Schoenoplectiella juncoides; experiment: Herbicidal activity against Schoenoplectiella juncoides assessed as killing at 10 g/ha by pot test
Rotala indica [7] = experiment: Herbicidal activity against Rotala indica assessed as killing at 10 g/ha by pot test
Sagittaria pygmaea [8] = experiment: Herbicidal activity against Sagittaria pygmaea assessed as killing at 1 g/ha by pot test
Echinochloa oryzicola [9] = experiment: Herbicidal activity against Echinochloa oryzicola assessed as killing at 10 g/ha by pot test
Echinochloa oryzicola [10] = experiment: Herbicidal activity against Echinochloa oryzicola assessed as killing at 1 g/ha by pot test
Lindernia procumbens [11] = experiment: Herbicidal activity against Lindernia procumbens assessed as killing at 10 g/ha by pot test
[12] = system: Schoenoplectiella juncoides; experiment: Herbicidal activity against Schoenoplectiella juncoides assessed as killing at 1 g/ha by pot test

COc1cc(OC)nc(NC(=O)NS(=O)(=O)c2c(C)cc3ccccn23)n1
Activity (Sagittaria pygmaea [1]): 76%
Activity (Lindernia procumbens [2]): 1%
Activity (Rotala indica [3]): 1%
Activity (Cyperus difformis [4]): 76%
Activity (Cyperus difformis [5]): 1%
Activity [6]: 51%
Activity (Rotala indica [7]): 51%
Activity (Sagittaria pygmaea [8]): 51%
Activity (Echinochloa oryzicola [9]): 76%
Activity (Echinochloa oryzicola [10]): 1%
Activity (Lindernia procumbens [11]): 51%
Activity [12]: 1%

COc1cc(OC)nc(NC(=O)NS(=O)(=O)c2c(C)cn3ccccc23)n1
Activity (Sagittaria pygmaea [1]): 76%
Activity (Lindernia procumbens [2]): 1%
Activity (Rotala indica [3]): 1%
Activity (Cyperus difformis [4]): 51%
Activity (Cyperus difformis [5]): 1%
Activity [6]: 1%
Activity (Rotala indica [7]): 1%
Activity (Sagittaria pygmaea [8]): 51%
Activity (Echinochloa oryzicola [9]): 1%
Activity (Echinochloa oryzicola [10]): 1%
Activity (Lindernia procumbens [11]): 1%
Activity [12]: 1%

COc1cc(OC)nc(NC(=O)NS(=O)(=O)c2ncc3ccccn23)n1
Activity (Sagittaria pygmaea [1]): 76%
Activity (Lindernia procumbens [2]): 1%
Activity (Rotala indica [3]): 51%
Activity (Cyperus difformis [4]): 1%
Activity (Cyperus difformis [5]): 1%
Activity [6]: 51%
Activity (Rotala indica [7]): 51%
Activity (Sagittaria pygmaea [8]): 1%
Activity (Echinochloa oryzicola [9]): 1%
Activity (Echinochloa oryzicola [10]): 1%
Activity (Lindernia procumbens [11]): 51%
Activity [12]: 1%

COc1cc(OC)nc(NC(=O)NS(=O)(=O)c2nc(C)n3ccccc23)n1
Activity (Sagittaria pygmaea [1]): 51%
Activity (Lindernia procumbens [2]): 1%
Activity (Rotala indica [3]): 51%
Activity (Cyperus difformis [4]): 76%
Activity (Cyperus difformis [5]): 1%
Activity [6]: 1%
Activity (Rotala indica [7]): 76%
Activity (Sagittaria pygmaea [8]): 51%
Activity (Echinochloa oryzicola [9]): 1%
Activity (Echinochloa oryzicola [10]): 1%
Activity (Lindernia procumbens [11]): 1%
Activity [12]: 1%

COc1cc(OC)nc(NC(=O)NS(=O)(=O)c2ncn3ccccc23)n1
Activity (Sagittaria pygmaea [1]): 76%
Activity (Lindernia procumbens [2]): 1%
Activity (Rotala indica [3]): 51%
Activity (Cyperus difformis [4]): 76%
Activity (Cyperus difformis [5]): 51%
Activity [6]: 1%
Activity (Rotala indica [7]): 76%
Activity (Sagittaria pygmaea [8]): 1%
Activity (Echinochloa oryzicola [9]): 51%
Activity (Echinochloa oryzicola [10]): 1%
Activity (Lindernia procumbens [11]): 51%
Activity [12]: 1%

COc1cc(OC)nc(NC(=O)NS(=O)(=O)c2c(C)nn3ccccc23)n1
Activity (Sagittaria pygmaea [1]): 88%
Activity (Lindernia procumbens [2]): 76%
Activity (Rotala indica [3]): 88%
Activity (Cyperus difformis [4]): 88%
Activity (Cyperus difformis [5]): 88%
Activity [6]: 100%
Activity (Rotala indica [7]): 88%
Activity (Sagittaria pygmaea [8]): 88%
Activity (Echinochloa oryzicola [9]): 88%
Activity (Echinochloa oryzicola [10]): 88%
Activity (Lindernia procumbens [11]): 88%
Activity [12]: 76%

COc1cc(OC)nc(NC(=O)NS(=O)(=O)c2c(C)nn3cccnc23)n1
Activity (Sagittaria pygmaea [1]): 88%
Activity (Lindernia procumbens [2]): 88%
Activity (Rotala indica [3]): 76%
Activity (Cyperus difformis [4]): 88%
Activity (Cyperus difformis [5]): 88%
Activity [6]: 100%
Activity (Rotala indica [7]): 88%
Activity (Sagittaria pygmaea [8]): 76%
Activity (Echinochloa oryzicola [9]): 88%
Activity (Echinochloa oryzicola [10]): 88%
Activity (Lindernia procumbens [11]): 88%
Activity [12]: 76%

COc1cc(OC)nc(NC(=O)NS(=O)(=O)c2c(C)nc3n(C)ccn23)n1
Activity (Sagittaria pygmaea [1]): 76%
Activity (Lindernia procumbens [2]): 51%
Activity (Rotala indica [3]): 51%
Activity (Cyperus difformis [4]): 76%
Activity (Cyperus difformis [5]): 1%
Activity [6]: 76%
Activity (Rotala indica [7]): 88%
Activity (Sagittaria pygmaea [8]): 1%
Activity (Echinochloa oryzicola [9]): 88%
Activity (Echinochloa oryzicola [10]): 1%
Activity (Lindernia procumbens [11]): 51%
Activity [12]: 1%

COc1cc(OC)nc(NC(=O)NS(=O)(=O)c2c(C)nc3scnn23)n1
Activity (Sagittaria pygmaea [1]): 88%
Activity (Lindernia procumbens [2]): 76%
Activity (Rotala indica [3]): 76%
Activity (Cyperus difformis [4]): 88%
Activity (Cyperus difformis [5]): 1%
Activity [6]: 88%
Activity (Rotala indica [7]): 88%
Activity (Sagittaria pygmaea [8]): 1%
Activity (Echinochloa oryzicola [9]): 88%
Activity (Echinochloa oryzicola [10]): 76%
Activity (Lindernia procumbens [11]): 88%
Activity [12]: 51%

COc1cc(OC)nc(NC(=O)NS(=O)(=O)c2c(C)nc3cccnn23)n1
Activity (Sagittaria pygmaea [1]): 100%
Activity (Lindernia procumbens [2]): 88%
Activity (Rotala indica [3]): 88%
Activity (Cyperus difformis [4]): 100%
Activity (Cyperus difformis [5]): 88%
Activity [6]: 100%
Activity (Rotala indica [7]): 88%
Activity (Sagittaria pygmaea [8]): 88%
Activity (Echinochloa oryzicola [9]): 100%
Activity (Echinochloa oryzicola [10]): 88%
Activity (Lindernia procumbens [11]): 88%
Activity [12]: 100%

Reference: ChEMBL document CHEMBL3046317, “Synthesis and Herbicidal Activity of Sulfonylureas with Fused Heterocyclic Moiety” (1994)
